Source: patent US4657931A, “N-(acyldipeptidyl)-aminoglycols” (G. D. Searle & Co., priority 1985, dated 1987)
Substitutions are numbered along the chain they refer to. Square brackets hold non-standard residues; d marks the D form. Peptide text beside a SMILES is read from it. * marks the point of attachment. Sta = CC(C)C[C@H](N)[C@@H](O)CC(=O)O; Isovaleryl = CC(C)CC(=O)*

Columns and labels:
[1] = molecular target: T1, human renin (Homo sapiens, UniProt P00797); assay: Human Renin Test (angiotensin I by radioimmunoassay); assay type: biochemical
T1 sequence (P00797 67-406): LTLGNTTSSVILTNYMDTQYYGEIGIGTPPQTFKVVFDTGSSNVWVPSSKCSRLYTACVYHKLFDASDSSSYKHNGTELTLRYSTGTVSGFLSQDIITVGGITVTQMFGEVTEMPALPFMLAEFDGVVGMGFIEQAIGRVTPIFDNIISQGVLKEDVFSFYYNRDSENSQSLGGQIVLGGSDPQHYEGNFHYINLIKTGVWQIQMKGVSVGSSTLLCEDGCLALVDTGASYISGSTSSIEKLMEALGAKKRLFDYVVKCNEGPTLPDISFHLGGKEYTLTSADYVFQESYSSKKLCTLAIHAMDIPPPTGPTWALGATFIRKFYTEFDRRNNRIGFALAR
Protocol: The enzyme preparation was the international reference standard for human renin while human blood plasma was the angiotensinogen substrate source. The enzyme inhibition assay involved a two-hour incurbation at 37° C. of the following final concentrations of reagents (total volume of 0.25 ml): 0.1 mG units/ml human renin, 0.05 ml human plasma, 6 mM Na2 EDTA, 2.4 mM PMSF, 1.5 mM 8-hydroxyquinoline, 0.4 mg/ml BSA, 0.024 mg/ml neomycin sulfate in a 100 mM Tris Acetate buffer, pH 7.5. The reaction was terminated by boiling for 10 min and the angiotensin I produced was determined by radioimmunoassay.
This assay is a modification of the one by Burton et al. (Biochemistry 14, 3892, 1975).

[2] = molecular target: T2, monkey renin (Macaca mulatta, UniProt Q6DLW5); assay: Monkey Renin Test: plasma renin activity of Lasix treated Rhesus monkeys; assay type: in vivo; set-up: Plasma renin activity (PRA), Pre-Lasix -24 hr / Plasma renin activity (PRA), Post-Lasix 0 hr / Plasma renin activity (PRA), Post-Lasix 2 min / Plasma renin activity (PRA), Post-Lasix 5 min / Plasma renin activity (PRA), Post-Lasix 15 min: unit not given here; conditions: for PRA after 15 min, in words / PRA at 2 min after treatment, in words: 10 mg/kg iv, lasix treated Rhesus monkeys; for Plasma renin activity (PRA), Post-Lasix 2 min: 2 min after 10 mg/kg iv; for Plasma renin activity (PRA), Post-Lasix 2 min / Plasma renin activity (PRA), Post-Lasix 5 min / Plasma renin activity (PRA), Post-Lasix 15 min / Plasma renin activity (PRA), Pre-Lasix -24 hr / Plasma renin activity (PRA), Post-Lasix 0 hr: mean ± S.E., n = 6; for Plasma renin activity (PRA), Post-Lasix 5 min: 5 min after 10 mg/kg iv; for Plasma renin activity (PRA), Post-Lasix 15 min: 15 min after 10 mg/kg iv; for Plasma renin activity (PRA), Pre-Lasix -24 hr: baseline before lasix and before drug, group later given 10 mg/kg iv; for Plasma renin activity (PRA), Post-Lasix 0 hr: immediately before drug treatment (10 mg/kg iv)
T2 construct: from tissue; host or cells: plasma of furosemide-treated Rhesus monkeys
T2 sequence (Q6DLW5 67-406): T1 sequence (P00797 67-406) with T2A, I148L, S169A, Q204P, R340H
Protocol: Rhesus monkeys (6/group) weighing (6.3-9.9 kg) were treated with lasix (furosemide) at 2 mg/kg, both in the A.M. and P.M. on day 1. […] Plasma samples (K-EDTA) were taken before the initial lasix, immediately before the drug treatment and at 2, 5, 15 min after the treatment. Plasma renin activity (PRA) was determined by the method of Burton et al., Biochemistry 14, 3892, 1975.

[3] = test system: hog renin; conditions: after the injection of hog renin into nephrectomized rats; cited from earlier work

PRA after 15 min, in words [2]	PRA at 2 min after treatment, in words [2]	Plasma renin activity (PRA), Post-Lasix 2 min [2]	Plasma renin activity (PRA), Post-Lasix 5 min [2]	Plasma renin activity (PRA), Post-Lasix 15 min [2]	Plasma renin activity (PRA), Pre-Lasix -24 hr [2]	Plasma renin activity (PRA), Post-Lasix 0 hr [2]	SMILES	other results
still lowered	returned to pre-lasix values	8.4 ± 2.6	15.1 ± 3.5	23.5 ± 4.6	12.2 ± 2.9	47.2 ± 7.9	CC(C)C[C@H](NC(=O)[C@H](Cc1ccccc1)NC(=O)OC(C)(C)C)C(=O)N[C@@H](Cc1ccccc1)[C@@H](O)CO [Compound 4, N-[(1,1-dimethylethoxy)carbonyl]-L-phenylalanyl-N-[2R, 3-dihydroxy-1S-(phenylmethyl)propyl]-L-leucinamide]	Activity, effect on human renin activity ([1]; Dose 8.4 × 10^-6 (unit not given)): Active
							CC(C)(C)OC(=O)N[C@@H](Cc1ccccc1)C(=O)N[C@@H](Cc1c[nH]cn1)C(=O)N[C@@H](Cc1ccccc1)[C@@H](O)CO [Compound 7, N-[(1,1-dimethylethoxy)carbonyl]-L-phenylalanyl-N-[2R,3-dihydroxy-1S-(phenylmethyl)propyl]-L-histidinamide]	Activity, effect on human renin activity ([1]; Dose 2.6 × 10^-6 (unit not given)): Active
							CC(C)C[C@H](NC(=O)[C@H](Cc1cccc2ccccc12)NC(=O)OC(C)(C)C)C(=O)N[C@@H](Cc1ccccc1)[C@@H](O)CO [Compound 8, N-[(1,1-dimethylethoxy)carbonyl]-3-(1-naphthalenyl)-L-alanyl-N-[2R,3-dihydroxy-1S-(phenylmethyl)propyl]-L-leucinamide]	Activity, effect on human renin activity ([1]; Dose 1.5 × 10^-5 (unit not given)): Active
							CC(C)C[C@H](NC(=O)[C@H](Cc1ccccc1)NC(=O)CC(C)(C)C)C(=O)N[C@@H](Cc1ccccc1)[C@@H](O)CO [Compound 11, N-(3,3-dimethyl-1-oxobutyl)-L-phenylalanyl-N-[2R,3-dihydroxy-1S-(phenylmethyl)propyl]-L-leucinamide]	Activity, effect on human renin activity ([1]; Dose 4 × 10^-6 (unit not given)): Active
returned to post-lasix levels	returned to pre-lasix values	13.0 ± 0.2	22.7 ± 9.2	44.7 ± 5.4	13.9 ± 2.5	53.1 ± 6.1	CC(C)CC(=O)N[C@H](C(=O)N[C@H](C(=O)N[C@@H](CC(C)C)[C@@H](O)CC(=O)N[C@@H](C)C(=O)N[C@@H](CC(C)C)[C@@H](O)CC(=O)O)C(C)C)C(C)C [Pepstatin, pepstatin, reference compound] (Isovaleryl-VV[Sta]A[Sta]-OH)	Blood pressure in vivo [3]: reduce blood pressure
